Measurements reported in patent US12553889B2, “Small molecules targeting the intrinsically disordered structural ensemble of α-synuclein protect against diverse α-synuclein mediated dysfunctions” (The Regents of the University of California, priority 2019, dated 2026).
“Also recorded” adds a separate entry of the source.

How the values were obtained:
[1] = system: BACE, GST and CAII control proteins; test: Biacore 4000 SPR binding specificity (pb-index, control proteins); conditions: 100 μM
Experimental: The binding specificity of 576755 and its analogues was assessed by testing their ability to bind to αSyn versus a set of control proteins: Beta-Site Amyloid Precursor Protein Cleaving Enzyme 1 (BACE), Glutathione-S transferase (GST) and Carbonic Anhydrase (CAII). The binding data was merged into a pb-index, as discussed in more detail below. Compounds were tested at 100 μM using the Biacore 4000 instrument as described below. […] The percent RMax (% Rmax) for αSyn and the average % Rmax for the control proteins (pb-index) were calculated described below. […] The remaining 576755-analogues show no reaction with the control proteins and thus have improved specificity of binding.
Preparation of off-target protein sensor chips. […]
Surface Plasmon Resonance Measurements. […] Time-dependent binding curves were monitored simultaneously. […] The time-dependent binding curves were monitored simultaneously. […]
SPR Data Evaluation. The obtained data were quality controlled and evaluated using the manufacturers Evaluation Software as described previously (Regnström, K. et al. (2013)). Data were exported into Microsoft Excel and further analyzed as follows: The binding levels of running buffer injections were used to calculate the background noise level (>three-fold σ). All binding level data was calculated by subtracting the background noise level and adjustment to molecular weight (% Rmax). […]

αSyn = αSyn (Homo sapiens, UniProt P37840); test: seeded αSyn fibrillization assay (αSyn seeds added at initiation); type: biochemical; set-up: made in house; host or cells: E. coli BL21(DE3), pET-21d
Experimental: Fibrillization assays. Prior to each aggregation assay, purified αSyn at 5 mg/mL was treated with 6M guanidine and dialyzed 36 hours in a 3500 MW cutoff Slide-A-lyzer with three changes of 20 mM sodium phosphate and 100 mM NaCl pH 7.4 buffer. αSyn was centrifuged at 130,000 g for 40 minutes in a Beckman Ultracentrifuge to remove seeding species and supernatant used for assays. For initial testing, 60 mM compound in DMSO was diluted to 300 μM in 0.5% DMSO and controls contained equivalent DMSO concentrations. Assay samples contained 20 μM Thioflavin T, filtered through a 0.45 μm Acrodisc filter prior to each assay, 70 μM αSyn in 20 mM sodium phosphate and 100 mM NaCl pH 7.4. One teflon bead, (0.125″ PTFE, Grade 2 polished) was placed in each well of a 96 well black with clear bottom assay plate (Corning) in a total volume of 500 μL. The plate was sealed with Mylar and parafilm, placed at 37° C. in a Tecan F200Pro Plate Reader and shaken at an amplitude of 6 mm for 120 hours continuously except for a brief time during reading of the plate. Thioflavin T fluorescence was detected by excitation at 440 nm and reading emissions at 485 nm each 60 minutes throughout the assay. […] Data were analyzed in Excel using XL-fit sigmoidal model #600 and when normalized, comparing fluorescence values at 50 hours for compounds as a percentage of DMSO control.

In the case of `CNC(=O)c1cc(O)ccc1N` [Compound 576755, 2-amino-5-hydroxy-N-methylbenzamide], the “binding to control proteins (pb-index versus % Rmax of αSyn binding)” value [1] is reported as “some non-specific binding to the control proteins”, the “impact on seeded fibrillization” value (αSyn; preformed αSyn fibrils/protofibrils added at initiation) is reported as “blocks fibrillization; also recorded: anti-aggregation activity” and the “time at which activity is first seen in seeded fibrillization” value (αSyn; seeded fibrillization, time in the incubation) is reported as ≤ 2 h.
